Experimental data: publication PMC12081876, “Identification of PTGR2 inhibitors as a new therapeutic strategy for diabetes and obesity” (EMBO Molecular Medicine, 2025)
“And” between values parts separate entries of the source, which are not always exact repeats. Equal values may be shown once.

Columns and labels:
[1] = test system: HFHSD-fed obese C57BL6/J mice; assay: Fasting glucose in HFHSD-fed mice; type: in vivo, mouse; parameters: Fasting glucose, Average / Fasting glucose (individual mouse): unit not given here; settings: for Fasting glucose, Average / Fasting glucose (individual mouse): Figure 5K; for Fasting glucose, Average: 100 mg/kg/day; for Fasting glucose (individual mouse): BPRPT0245 group
Method: Ptgr2^+/+ and Ptgr2^−/− mice were created by the Transgenic Mouse Model Core Facility of the National Core Facility for Biopharmaceuticals, Ministry of Science and Technology, Taiwan and the Animal Resources Laboratory of National Taiwan University Centers of Genomic and Precision Medicine. C57BL6/J mice were purchased from National Laboratory Animal Center. All animal experiments were performed according to institutional ethical guidelines and were approved by the Institutional Animal Care and Use Committee (IACUC) of National Taiwan University Medical College (IACUC No.: 20140456). All mice were housed under standard conditions at 23 °C and 12/12 h. light/dark (7 AM–7 PM) cycle in animal centers of the National Taiwan University Medical College, which is accredited by the Association for Assessment and Accreditation of Laboratory Animal Care International (AAALAC). Mice were provided shelters and sticks weekly. We used adequate anesthetic procedure to reduce pain, suffering and distress according to our animal center regulation. We reported expected or unexpected adverse events to the veterinarian of our animal center. The humane endpoints include 20% weight loss, rough hair coat, hunched posture, lethargy or persistent, or any condition interfering with eating or drinking. Eight-week-old male mice were fed on either a high-fat high-sucrose diet (HFHSD) (cat. no. D12331, Research Diets) or a regular chow diet (cat no. 5001, Lab Diet). BPRPT0245 was dissolved 3% dimethylacetamide and 10% cremophor in water and administered daily to HFHSD-fed obese C57BL6/J mice by oral gavage (100 mg/kg/day).

[2] = test system: HFHSD-fed obese C57BL6/J mice; assay: Tissue weights (fat pads, liver, BAT); type: in vivo, mouse; parameters: Inguinal fat weight (Figure 5N): unit not given here
[3] = target: hPTGR2 (Homo sapiens, UniProt Q8N8N7); assay: 15-keto-PGE2-dependent PPARγ trans-activation in PTGR2-transfected HEK293T cells; type: cell-based; parameters: expressed in transfected cells; host or cells: HEK293T; settings: restoring 15-keto-PGE2-dependent PPARγ trans-activation, HEK293T expressing recombinant PTGR2
Excerpt: Based on these findings from the Ptgr2^−/− mice, we next searched for druggable chemical inhibitors that can effectively suppress human PTGR2 (hPTGR2) enzymatic activity. Using a high-throughput screening of 12,500 chemicals, we identified 31 hits and generated 282 derivatives using a molecular hybridization strategy among the hits. The in vitro IC50 (the half-maximal inhibitory concentration), EC50 (the concentration for half-maximal effect), and the compound’s activity to restore 15-keto-PGE2-dependent PPARγ trans-activation in HEK293T cells expressing recombinant PTGR2 were profiled.
Gal4-PPARγ/UAS-LUC reporter assay was conducted as previously described (Wu et al, [2008]) with minor modifications. Briefly, HEK293T cells were seeded in 24-well plates at 1 × 10^5 cells/well. After 24-h growth, a DNA solution containing UASG reporter construct, GAL4-PPAR expression plasmid, and TK-Rluc (Renilla luciferase) reporter construct (internal control) was transfected using TurboFect™ transfection reagent (cat. no. R0532, Thermo Fisher). Cells were treated and harvested after another 24 and 48 h, respectively. Luciferase activity was measured using Luc-Pair™ Duo-Luciferase HS Assay Kit (cat. no. LF600, Promega) and normalized with the TK reporter signal.

[4] = 100 mg/kg/day oral, HFHSD-fed mice, vs vehicle
[5] = individual animals, in g (unit assumed)

Sequence of hPTGR2 (Q8N8N7 whole entry): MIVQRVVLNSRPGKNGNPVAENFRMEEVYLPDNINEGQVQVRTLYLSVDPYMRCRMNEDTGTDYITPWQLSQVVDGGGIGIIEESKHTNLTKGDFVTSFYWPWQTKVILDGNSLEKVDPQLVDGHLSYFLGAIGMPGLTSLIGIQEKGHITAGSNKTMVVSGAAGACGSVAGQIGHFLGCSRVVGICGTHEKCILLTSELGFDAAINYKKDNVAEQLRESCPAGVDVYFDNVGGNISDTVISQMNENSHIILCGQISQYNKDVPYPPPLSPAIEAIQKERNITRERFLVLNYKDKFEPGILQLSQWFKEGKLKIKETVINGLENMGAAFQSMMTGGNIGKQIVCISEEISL

SMILES: Cc1[nH]c2nc(C(C)N3CCN(c4ccccc4)CC3)nn2c(=O)c1Cc1ccc(F)cc1 (stereo not shown) [BPRPT0245]
- fasting plasma glucose [1, 4]: lowered fasting plasma glucose
- Fasting glucose, Average ([1]; week 0): 172.4
- Fasting glucose (individual mouse) ([1]; week 0): 140 and 191 and 194 and 229 and 230 and 148 and 190 and 111 and 179
- Fasting glucose, Average ([1]; week 2): 215
- Fasting glucose (individual mouse) ([1]; week 2): 178 and 220 and 216 and 291 and 182 and 199 and 225 and 148
- Fasting glucose, Average ([1]; week 4): 172.4
- Fasting glucose (individual mouse) ([1]; week 4): 162 and 198 and 190 and 178 and 194 and 163 and 177
- Fasting glucose, Average ([1]; week 6): 168.6
- Fasting glucose (individual mouse) ([1]; week 6): 151 and 215 and 171 and 164 and 188 and 139 and 181
- Fasting glucose, Average ([1]; week 8): 182.6
- Fasting glucose (individual mouse) ([1]; week 8): 164 and 212 and 172 and 202 and 171 and 198 and 219
- Fasting glucose, Average ([1]; week 10): 183.2
- Fasting glucose (individual mouse) ([1]; week 10): 224 and 198 and 153 and 169 and 162 and 150 and 171
- Fasting glucose, Average ([1]; week 12): 184.933
- Fasting glucose (individual mouse) ([1]; week 12): 187 and 219 and 140 and 175 and 200 and 156 and 161 and 177
- Fasting glucose, Average ([1]; week 14): 181.467
- Fasting glucose (individual mouse) ([1]; week 14): 220 and 210 and 169 and 202 and 174 and 149 and 142
- Fasting glucose, Average ([1]; week 16): 186.667
- Fasting glucose (individual mouse) ([1]; week 16): 212 and 199 and 167 and 164 and 191 and 183 and 171
- Fasting glucose, Average ([1]; week 18): 173.933
- Fasting glucose (individual mouse) ([1]; week 18): 179 and 178 and 134 and 146 and 197 and 201 and 147 and 181 and 202
- Fasting glucose, Average ([1]; week 20): 159.8
- Fasting glucose (individual mouse) ([1]; week 20): 179 and 154 and 153 and 170 and 174 and 220 and 131 and 171 and 134
- Fasting glucose, Average ([1]; week 22): 158.933
- Fasting glucose (individual mouse) ([1]; week 22): 195 and 156 and 123 and 149 and 148 and 163 and 132 and 201 and 161
- Fasting glucose, Average ([1]; week 24): 164.4
- Fasting glucose (individual mouse) ([1]; week 24): 119 and 164 and 166 and 168 and 204 and 174
- white fat mass and liver mass [2, 4]: significantly reduced
- Inguinal fat weight (Figure 5N) ([2]; individual animals): 3.1135 and 2.4997 and 3.7598 and 1.225 and 2.118 and 3.7874 and 2.0547 and 1.3489 and 2.0692 and 1.6337
- BAT weight (Figure 5N) [2, 5]: 0.1698 and 0.1291 and 0.2802 and 0.1132 and 0.1765 and 0.2813 and 0.0604 and 0.0923 and 0.1293
- Liver weight (Figure 5N) [2, 5]: 1.4298 and 1.1221 and 1.8053 and 1.0426 and 1.3688 and 2.9793 and 1.3504 and 1.1836 and 1.2693 and 1.0805
- Mesenteric fat weight (Figure 5N) [2, 5]: 1.0785 and 0.4119 and 1.0515 and 0.3617 and 0.4577 and 1.3111 and 0.5735 and 0.369 and 0.413 and 0.3561
- Perigonadal fat weight (Figure 5N) [2, 5]: 2.771 and 2.393 and 3.067 and 1.288 and 2.096 and 2.817 and 2.396 and 1.58 and 2.043 and 2.048
- EC50 [3]: 49.2 nM
